Among the data in US20250163104A1, “MACROCYCLIC IMMUNOMODULATORS” (priority 2021, published 2025) are IC50 values, retold here.

By IC50 is commonly meant the concentration needed to halve the response being measured.

The target in this assay is T1, human PD-1 / PD-L1-Ig binding on Jurkat cell line over-expressing human PD-1 (Jurkat-PD-1) (Homo sapiens, UniProt Q15116).
T1 construct: expressed in transfected cells; host or cells: Jurkat
Description: Jurkat-PD-1 Cell Binding High-Content Screening Assay (CBA). The conditions noted are these: Jurkat-PD-1 cells, PE-labeled PD-L1-Ig 20 nM final; read-out: Jurkat HPD1_PDL1 IC50. Format: cell-based. In a few lines: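 Jurkat-hPD-1 cells in DMEM with 10% fetal calf serum receive test compound and are held at 37° C for 2 h. PE-labeled PD-L1-Ig is added at 20 nM final and left for 1 hour. Cells are then fixed and Hoechst-stained, and binding is measured by imaging.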

Where a SMILES comes first, the peptide text is derived from it. Bridges are numbered along the chain shown (N, C = ends). [ ]: non-standard residue; d: D form. The star is where a group is joined. ξ: configuration not given here. Phe(4-CONH2) = NC(=O)c1ccc(C[C@H](N)C(=O)O)cc1; Phe(4-COOH) = N[C@@H](Cc1ccc(C(=O)O)cc1)C(=O)O; Bip = N[C@@H](Cc1ccc(-c2ccccc2)cc1)C(=O)O; Phe(3-Me) = Cc1cccc(C[C@H](N)C(=O)O)c1; Val(3-OH) = CC(C)(O)[C@H](N)C(=O)O; ξW = NC(Cc1c[nH]c2ccccc12)C(=O)O; 3Pal = N[C@@H](Cc1cccnc1)C(=O)O; 4Pal = N[C@@H](Cc1ccncc1)C(=O)O; 2Thi = N[C@@H](Cc1cccs1)C(=O)O; Cha = N[C@@H](CC1CCCCC1)C(=O)O; Cit = NC(=O)NCCC[C@H](N)C(=O)O; Carboxymethyl = O=C(O)C*; Orn = NCCC[C@H](N)C(=O)O; Dab = NCC[C@H](N)C(=O)O; Dap = NC[C@H](N)C(=O)O; Propargyl = C#CC*

T1 sequence (Q15116 25-288): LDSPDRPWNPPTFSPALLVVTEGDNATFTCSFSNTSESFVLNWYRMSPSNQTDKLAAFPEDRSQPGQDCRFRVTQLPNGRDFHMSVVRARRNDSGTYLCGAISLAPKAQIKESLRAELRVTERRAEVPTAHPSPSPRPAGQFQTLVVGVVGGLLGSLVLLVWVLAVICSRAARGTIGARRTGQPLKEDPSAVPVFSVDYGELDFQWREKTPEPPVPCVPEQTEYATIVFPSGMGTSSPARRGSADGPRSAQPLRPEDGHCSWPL

`COC[C@@H]1NC(=O)[C@H](Cc2c[nH]c3ccccc23)NC(=O)[C@H](CC(=O)O)NC(=O)[C@H](Cc2ccc(OCC(=O)O)cc2)NC(=O)[C@H](CN)NC(=O)CSC[C@@H](C(=O)N[C@@H](C)C(N)=O)NC(=O)[C@H]([C@@H](C)O)NC(=O)[C@H](C(C)C)NC(=O)[C@H](CC2CCCCC2)NC(=O)[C@H](CCN)NC(=O)[C@@H](CC(C)C)NC(=O)[C@H](CCCN)NC(=O)[C@H](CCCNC(N)=O)NC(=O)[C@H](Cc2ccc(-c3ccccc3)cc2)NC1=O` [Compound 1002] ({CH2CO}-[Dap]Y(Carboxymethyl)DWS(Me)[Bip][Cit][Orn][dL][Dab][Cha]VTCA-NH2; thioether N-14): the IC50 came to 17.2 nM. As for `CC(C)C[C@@H]1NC(=O)C(Cc2c[nH]c3ccccc23)NC(=O)[C@H](CC(=O)O)NC(=O)[C@H](Cc2ccc(O)cc2)NC(=O)[C@H](Cc2ccccc2)NC(=O)CSC[C@@H](C(=O)N[C@@H](C)C(N)=O)NC(=O)[C@H](CO)NC(=O)[C@H](C(C)C)NC(=O)[C@H](CC(C)C)NC(=O)[C@H](CC(N)=O)NC(=O)[C@@H](CC(C)C)NC(=O)[C@H](CCN)NC(=O)[C@H](C(C)C)NC(=O)[C@H](Cc2ccc(-c3ccccc3)cc2)NC1=O` (stereo partly drawn) [Compound 1214] ({CH2CO}-FYD[ξW]L[Bip]V[Dab][dL]NLVSCA-NH2; thioether N-14), the figure is 14.1 nM; as for `CC(C)C[C@H]1NC(=O)[C@H](CCCN)NC(=O)[C@H](CCC(=O)O)NC(=O)[C@H](Cc2ccc(-c3ccccc3)cc2)NC(=O)[C@H](C(C)C)NC(=O)[C@H](Cc2c[nH]c3ccccc23)NC(=O)[C@H](CC(=O)O)NC(=O)[C@H](Cc2ccc(N)cc2)NC(=O)[C@H](Cc2ccc(OCC(=O)O)cc2)NC(=O)CSC[C@@H](C(=O)N[C@@H](C)C(N)=O)NC(=O)[C@H]([C@@H](C)O)NC(=O)[C@H](C(C)C)NC(=O)[C@H](CC2CCCCC2)NC(=O)[C@H](CCN)NC1=O` [Compound 2183], 19.4 nM.

On to `CC[C@H](C)[C@@H]1NC(=O)[C@H](Cc2ccc(-c3ccccc3)cc2)NC(=O)[C@H](C(C)C)NC(=O)[C@H](Cc2c[nH]c3ccccc23)NC(=O)[C@H](CC(=O)O)NC(=O)[C@H](Cc2ccc(C(=O)O)cc2)NC(=O)[C@H](CN)NC(=O)CSC[C@@H](C(=O)N[C@@H](C)C(N)=O)NC(=O)[C@H]([C@@H](C)O)NC(=O)[C@H](C(C)C)NC(=O)[C@H](CC(C)C)NC(=O)[C@H](CCN)NC(=O)[C@@H](CC(C)C)NC(=O)[C@H](CCCN)NC1=O` [Compound 1052] ({CH2CO}-[Dap][Phe(4-COOH)]DWV[Bip]I[Orn][dL][Dab]LVTCA-NH2; thioether N-14), for which the concentration for half-maximal inhibition (IC50) turned out to be 11.8 nM. Consider `C#CCOc1ccc(C[C@@H]2NC(=O)[C@H](Cc3cccc(C)c3)NC(=O)[C@H](CC(=O)O)NC(=O)[C@H](Cc3ccc(OCC(=O)O)cc3)NC(=O)[C@H](Cc3ccc(OCC(=O)O)cc3)NC(=O)CSC[C@@H](C(=O)N[C@@H](CCN)C(N)=O)NC(=O)[C@H](CCC(=O)O)NC(=O)[C@H](C(C)C)NC(=O)[C@H](CC3CCCCC3)NC(=O)[C@H](CCN)NC(=O)[C@@H](CC(C)C)NC(=O)[C@H](CCCN)NC(=O)[C@H](Cc3ccc(OCC(=O)O)cc3)NC(=O)[C@H](Cc3ccc(-c4ccccc4)cc3)NC2=O)cc1` [Compound 1834] ({CH2CO}-Y(Carboxymethyl)Y(Carboxymethyl)D[Phe(3-Me)]Y(Propargyl)[Bip]Y(Carboxymethyl)[Orn][dL][Dab][Cha]VEC[Dab]-NH2; thioether N-14), for which the concentration for half-maximal inhibition (IC50) was 3.3 nM. As for `CC(C)C[C@@H]1NC(=O)[C@H](CCN)NC(=O)[C@@H](CC(C)C)NC(=O)[C@H](CCN)NC(=O)[C@H](CCCNC(N)=O)NC(=O)[C@H](Cc2ccc(-c3ccccc3)cc2)NC(=O)[C@H](C(C)C)NC(=O)[C@H](Cc2c[nH]c3ccccc23)NC(=O)[C@H](CC(=O)O)NC(=O)[C@H](Cc2ccc(O)cc2)NC(=O)[C@H](CC(N)=O)NC(=O)CSC[C@@H](C(=O)N[C@@H](C)C(N)=O)NC(=O)[C@H](CO)NC(=O)[C@H](C(C)C)NC1=O` [Compound 1111] ({CH2CO}-NYDWV[Bip][Cit][Dab][dL][Dab]LVSCA-NH2; thioether N-14), the figure is 37.9 nM; as for `Cc1cccc(C[C@@H]2NC(=O)[C@H](CC(=O)O)NC(=O)[C@H](Cc3ccc(C(N)=O)cc3)NC(=O)[C@H](Cc3ccncc3)NC(=O)CSC[C@@H](C(=O)N[C@@H](CCN)C(N)=O)NC(=O)[C@H](CO)NC(=O)[C@H](C(C)(C)O)NC(=O)[C@H](CC3CCCCC3)NC(=O)[C@H](CCN)NC(=O)[C@@H](CC(C)C)NC(=O)[C@H](CCCN)NC(=O)[C@H](Cc3ccc(OCC(=O)O)cc3)NC(=O)[C@H](Cc3ccc(-c4ccccc4)cc3)NC(=O)[C@H](Cc3ccc(C(=O)O)cc3)NC2=O)c1` [Compound 2627] ({CH2CO}-[4Pal][Phe(4-CONH2)]D[Phe(3-Me)][Phe(4-COOH)][Bip]Y(Carboxymethyl)[Orn][dL][Dab][Cha][Val(3-OH)]SC[Dab]-NH2; thioether N-14), 5 nM. To `CC(C)C[C@H]1NC(=O)[C@H](CCCN)NC(=O)[C@H](C(C)C)NC(=O)[C@H](Cc2ccc(-c3ccccc3)cc2)NC(=O)[C@H](C(C)C)NC(=O)[C@H](Cc2cccc(C(F)(F)F)c2)NC(=O)[C@H](CC(=O)O)NC(=O)[C@H](Cc2ccc(OCC(=O)O)cc2)NC(=O)[C@H](Cc2ccc(OCC(=O)O)cc2)NC(=O)CSC[C@@H](C(=O)N[C@@H](C)C(N)=O)NC(=O)[C@H]([C@@H](C)O)NC(=O)[C@H](C(C)C)NC(=O)[C@H](CC2CCCCC2)NC(=O)[C@H](CCN)NC1=O` [Compound 1574] belongs 30.4 nM; to `CC(C)C[C@@H]1NC(=O)C(Cc2c[nH]c3ccccc23)NC(=O)[C@H](CC(=O)O)NC(=O)[C@H](Cc2ccc(O)cc2)NC(=O)[C@H](Cc2ccccc2)NC(=O)CSC[C@@H](C(=O)N[C@@H](C)C(N)=O)NC(=O)[C@H]([C@@H](C)O)NC(=O)[C@H](C(C)C)NC(=O)[C@H](CC(C)C)NC(=O)[C@H](CC(N)=O)NC(=O)[C@@H](CC(C)C)NC(=O)[C@H](CN)NC(=O)[C@H](C(C)C)NC(=O)[C@H](Cc2ccc(-c3ccccc3)cc2)NC1=O` (stereo partly drawn) [Compound 1213] ({CH2CO}-FYD[ξW]L[Bip]V[Dap][dL]NLVTCA-NH2; thioether N-14), 20.8 nM; to `CC(C)C[C@@H]1NC(=O)[C@H](CCN)NC(=O)[C@@H](CC(C)C)NC(=O)[C@H](CCN)NC(=O)[C@H](CCCNC(N)=O)NC(=O)[C@H](Cc2ccc(-c3ccccc3)cc2)NC(=O)[C@H](C(C)C)NC(=O)[C@H](Cc2c[nH]c3ccccc23)NC(=O)[C@H](CC(=O)O)NC(=O)[C@H](Cc2ccc(O)cc2)NC(=O)[C@H](CC(N)=O)NC(=O)CSC[C@@H](C(=O)N[C@@H](C)C(N)=O)NC(=O)[C@H]([C@@H](C)O)NC(=O)[C@H](C(C)C)NC1=O` [Compound 1018] ({CH2CO}-NYDWV[Bip][Cit][Dab][dL][Dab]LVTCA-NH2; thioether N-14), 20.7 nM. As to `CC(C)C[C@@H]1NC(=O)[C@H](CCN)NC(=O)[C@@H](CC(C)C)NC(=O)[C@H](CCCN)NC(=O)[C@H](CCCNC(N)=O)NC(=O)[C@H](Cc2ccc(-c3ccccc3)cc2)NC(=O)[C@H](C(C)C)NC(=O)[C@H](Cc2c[nH]c3ccccc23)NC(=O)[C@H](CC(=O)O)NC(=O)[C@H](Cc2ccc(O)cc2)NC(=O)[C@H](Cc2cccnc2)NC(=O)CSC[C@@H](C(=O)N[C@@H](C)C(N)=O)NC(=O)[C@H]([C@@H](C)O)NC(=O)[C@H](C(C)C)NC1=O` [Compound 1041] ({CH2CO}-[3Pal]YDWV[Bip][Cit][Orn][dL][Dab]LVTCA-NH2; thioether N-14), the IC50 was found to be 42.4 nM. To `Cc1cccc(C[C@@H]2NC(=O)[C@H](CC(=O)O)NC(=O)[C@H](Cc3ccc(C(=O)O)cc3)NC(=O)[C@H](Cc3cccs3)NC(=O)CSC[C@@H](C(=O)N[C@@H](CCN)C(N)=O)NC(=O)[C@H](CO)NC(=O)[C@H](C(C)(C)O)NC(=O)[C@H](CC3CCCCC3)NC(=O)[C@H](CCN)NC(=O)[C@@H](CC(C)C)NC(=O)[C@H](CCCN)NC(=O)[C@H](Cc3ccc(OCC(=O)O)cc3)NC(=O)[C@H](Cc3ccc(-c4ccccc4)cc3)NC(=O)[C@H](Cc3ccc(C(=O)O)cc3)NC2=O)c1` [Compound 2625] ({CH2CO}-[2Thi][Phe(4-COOH)]D[Phe(3-Me)][Phe(4-COOH)][Bip]Y(Carboxymethyl)[Orn][dL][Dab][Cha][Val(3-OH)]SC[Dab]-NH2; thioether N-14) belongs 5.7 nM; to `CCC(C)[C@@H]1NC(=O)[C@H](Cc2ccc(-c3ccccc3)cc2)NC(=O)[C@H](C(C)C)NC(=O)[C@H](Cc2cc(OC)c(F)cc2F)NC(=O)[C@H](CC(=O)O)NC(=O)[C@H](Cc2ccc(OCC(=O)O)cc2)NC(=O)[C@H](CN)NC(=O)CSC[C@@H](C(=O)N[C@@H](C)C(N)=O)NC(=O)[C@H]([C@@H](C)O)NC(=O)[C@H](C(C)C)NC(=O)[C@H](CC2CCCCC2)NC(=O)[C@H](CCN)NC(=O)[C@@H](CC(C)C)NC(=O)[C@H](CCCN)NC1=O` (stereo partly drawn) [Compound 2246], 13.2 nM. For the compound `Cc1cccc(C[C@@H]2NC(=O)[C@H](CC(=O)O)NC(=O)[C@H](Cc3ccc(C(=O)O)cc3)NC(=O)[C@H](Cc3ccncc3)NC(=O)CSC[C@@H](C(=O)N[C@@H](CC(N)=O)C(N)=O)NC(=O)[C@H](CO)NC(=O)[C@H](C(C)C)NC(=O)[C@H](CC3CCCCC3)NC(=O)[C@H](CCN)NC(=O)[C@@H](CC(C)C)NC(=O)[C@H](CCCN)NC(=O)[C@H](Cc3ccc(O)cc3)NC(=O)[C@H](Cc3ccc(-c4ccccc4)cc3)NC(=O)[C@H](C(C)C)NC2=O)c1` [Compound 2289] ({CH2CO}-[4Pal][Phe(4-COOH)]D[Phe(3-Me)]V[Bip]Y[Orn][dL][Dab][Cha]VSCN-NH2; thioether N-14), the IC50 was determined as 16.4 nM. For the compound `CC[C@H](C)[C@@H]1NC(=O)[C@H](Cc2ccc(-c3ccccc3)cc2)NC(=O)[C@H](C(C)C)NC(=O)[C@H](Cc2cccc(OC)c2)NC(=O)[C@H](CC(=O)O)NC(=O)[C@H](Cc2ccc(C(=O)O)cc2)NC(=O)[C@H](Cc2ccncc2)NC(=O)CSC[C@@H](C(=O)N[C@@H](C)C(N)=O)NC(=O)[C@H]([C@@H](C)O)NC(=O)[C@H](C(C)C)NC(=O)[C@H](CC(C)C)NC(=O)[C@H](CCN)NC(=O)[C@@H](CC(C)C)NC(=O)[C@H](CCCN)NC1=O` [Compound 1181], the half-inhibitory concentration (IC50) stood at 12 nM.
